Measurements reported in patent US20170273949A1, “AGENT FOR PREVENTING AND/OR TREATING OPHTHALMOLOGIC DISEASES” (MITSUBISHI TANABE PHARMA CORPORATION, priority 2014, published 2017).

Legend:
[1] = system: mouse models induced to have choroidal neovascularization (CNV) by laser irradiation (CNV models); experiment: laser-induced choroidal neovascularization (CNV) mouse model, area of CNV; format: in vivo; conditions: mice; 3 mg/kg or 10 mg/kg edaravone into the caudal vein immediately after laser irradiation; choroidal flat mount 14 days after irradiation; FIG. 1A, 1B
Procedure: In such CNV models, macrophages migrate as a result of provocation of inflammation by laser irradiation. Consequently, VEGF is generated, and new blood vessels are formed.
A 10-fold dilution of a mixed anesthetic solution of ketamine and xylazine (7:1) was administered at a dose of 10 mL/kg into the femoral muscle of each mouse, and one eye was then irradiated with laser at 6 sites with equal intervals on the circumference of discus nervi optici (wave length: 647 nm, spot size: 50 μm, irradiation time: 100 msec, and laser output: 120 mW). Immediately after the laser irradiation, 3 mg/kg edaravone, 10 mg/kg edaravone, or 10 mL/kg normal saline was administered into the caudal vein of each mouse. Thereafter, fundus photography was carried out using a fundus camera. Fourteen days after the laser irradiation, a 10-fold dilution of Fluorescite (registered trademark) Injection Solution No. 1 was administered at a dose of 0.5 mL/kg into the caudal vein under the same anesthesia as described above, and fluorescein fundus photography was then carried out using a fundus camera. […] The expression of CNV was evaluated by choroidal flat mount. Using a confocal laser scanning microscope, the CNV was photographed, and the area of CNV was then measured. […]

[2] = system: human retinal microvascular endothelial cells (HRMECs); experiment: VEGF-induced cell growth of HRMECs (cell counting kit-8); format: cell-based; conditions: edaravone 1, 10 or 100 μM added 1 hour before VEGF 10 ng/mL, 24 hours, control without VEGF = 100%, FIG. 2
Procedure: Using CSC Complete Recombinant Medium, human retinal microvascular endothelial cells (HRMECs) were plated at a cell density of 2×10^3 cells/well on a 96-well plate. Twenty-four hours after plating, the medium was exchanged with a CSC medium containing 10% fetal bovine serum (FBS). Then, twenty-four hours after the medium exchange, edaravone was added in a final concentration of 1, 10 or 100 μM to an edaravone addition group. One hour after the addition of edaravone, to a vascular endothelial growth factor (VEGF) addition group, VEGF was added in a final concentration of 10 ng/mL. Twenty-four hours after the addition of VEGF, in order to remove the reagent and VEGF, the medium was exchanged again with a CSC medium containing 10% FBS. After completion of the medium exchange, cell counting kit-8 was added, and the absorbance at 450 nm was then measured (defined as “measurement value 1”). Three hours after the measurement of the absorbance, the second absorbance measurement was carried out (defined as “measurement value 2”). The measurement value 1 was subtracted from the measurement value 2, and the obtained value was then corrected, using a control group, to which VEGF had not been added, as 100%. The thus obtained value was defined as a growth rate. The cells were cultured under conditions of 37° C. and 5% CO2, except for the operations.

CC1=NN(c2ccccc2)C(=O)C1 [edaravone, 3-methyl-1-phenyl-2-pyrazolin-5-one]
CNV formation (area of CNV) [1]: inhibited
cell growth induced by VEGF (growth rate) [2]: suppressed
